Source: ChEMBL document CHEMBL4346757, “Synthesis and biological evaluation of 7-methoxy-1-(3,4,5-trimethoxyphenyl)-4,5-dihydro-2H-benzo[e]indazoles as new colchicine site inhibitors” (Bioorg Med Chem Lett, 2019)

What was measured:
Format in all cases: functional
[1] = system: KM12; assay: Growth inhibition of human KM12 cells assessed as cell growth at 0.01 uM after 48 hrs by SRB assay relative to control; details: KM12, 48 h, read-out: Activity
[2] = system: SF-539; assay: Growth inhibition of human SF539 cells assessed as cell growth at 0.01 uM after 48 hrs by SRB assay relative to control; details: SF-539, 48 h, read-out: Activity
[3] = system: Malme-3M; assay: Growth inhibition of human MALME-3M cells assessed as cell growth at 0.01 uM after 48 hrs by SRB assay relative to control; details: read-out: Activity
[4] = system: ACHN; assay: Growth inhibition of human ACHN cells assessed as cell growth at 0.01 uM after 48 hrs by SRB assay relative to control; details: read-out: Activity
[5] = system: PC-3; assay: Growth inhibition of human PC3 cells assessed as cell growth at 0.01 uM after 48 hrs by SRB assay relative to control; details: PC-3, 48 h, read-out: Activity
[6] = system: MOLT-4; assay: Growth inhibition of human MOLT4 cells assessed as cell growth at 0.1 uM after 48 hrs by SRB assay relative to control; details: MOLT-4, 48 h, read-out: Activity
[7] = system: SF-268; assay: Growth inhibition of human SF268 cells assessed as cell growth at 0.1 uM after 48 hrs by SRB assay relative to control; details: SF-268, 48 h, read-out: Activity
[8] = system: NCI/ADR-RES; assay: Growth inhibition of human NCI-ADR-RES cells assessed as cell growth at 0.1 uM after 48 hrs by SRB assay relative to control; details: read-out: Activity
[9] = system: BT-549; assay: Growth inhibition of human BT549 cells assessed as cell growth at 0.1 uM after 48 hrs by SRB assay relative to control; details: BT-549, 48 h, read-out: Activity
[10] = system: UACC-257; assay: Growth inhibition of human UACC257 cells assessed as cell growth at 1 uM after 48 hrs by SRB assay relative to control; details: UACC-257, 48 h, read-out: Activity
[11] = system: RPMI-8226; assay: Growth inhibition of human RPMI8226 cells assessed as cell growth at 10 uM after 48 hrs by SRB assay relative to control; details: RPMI-8226, 48 h, read-out: Activity
[12] = system: SW-620; assay: Growth inhibition of human SW620 cells assessed as cell growth at 10 uM after 48 hrs by SRB assay relative to control; details: SW-620, 48 h, read-out: Activity
[13] = system: SK-MEL-2; assay: Growth inhibition of human SK-MEL-2 cells assessed as cell growth at 10 uM after 48 hrs by SRB assay relative to control; details: SK-MEL-2, 48 h, read-out: Activity
[14] = system: SK-MEL-28; assay: Growth inhibition of human SK-MEL-28 cells assessed as cell growth at 10 uM after 48 hrs by SRB assay relative to control; details: SK-MEL-28, 48 h, read-out: Activity
[15] = system: OVCAR-4; assay: Growth inhibition of human OVCAR4 cells assessed as cell growth at 10 uM after 48 hrs by SRB assay relative to control; details: OVCAR-4, 48 h, read-out: Activity
[16] = system: A498; assay: Growth inhibition of human A498 cells assessed as cell growth at 10 uM after 48 hrs by SRB assay relative to control; details: A498, 48 h, read-out: Activity
[17] = system: MOLT-4; assay: Growth inhibition of human MOLT4 cells assessed as cell growth at 100 uM after 48 hrs by SRB assay relative to control; details: MOLT-4, 48 h, read-out: Activity
[18] = system: SK-MEL-5; assay: Growth inhibition of human SK-MEL-5 cells assessed as cell growth at 100 uM after 48 hrs by SRB assay relative to control; details: SK-MEL-5, 48 h, read-out: Activity
[19] = system: IGROV-1; assay: Growth inhibition of human IGROV1 cells assessed as cell growth at 100 uM after 48 hrs by SRB assay relative to control; details: IGROV-1, 48 h, read-out: Activity
[20] = system: PC-3; assay: Growth inhibition of human PC3 cells assessed as cell growth at 100 uM after 48 hrs by SRB assay relative to control; details: PC-3, 48 h, read-out: Activity
[21] = system: MCF7; assay: Growth inhibition of human MCF7 cells assessed as cell growth at 100 uM after 48 hrs by SRB assay relative to control; details: MCF7, 48 h, read-out: Activity
[22] = system: SR; assay: Cytotoxicity against human SR cells assessed as growth inhibition after 48 hrs by SRB assay
[23] = system: A549; assay: Cytotoxicity against human A549/ATCC cells assessed as growth inhibition after 48 hrs by SRB assay; details: A549, 48 h
[24] = system: NCI-H322M; assay: Cytotoxicity against human NCI-H322M cells assessed as growth inhibition after 48 hrs by SRB assay
[25] = system: SK-MEL-2; assay: Cytotoxicity against human SK-MEL-2 cells assessed as growth inhibition after 48 hrs by SRB assay; details: SK-MEL-2, 48 h
[26] = system: SK-MEL-28; assay: Cytotoxicity against human SK-MEL-28 cells assessed as growth inhibition after 48 hrs by SRB assay; details: SK-MEL-28, 48 h
[27] = system: OVCAR-8; assay: Cytotoxicity against human OVCAR8 cells assessed as growth inhibition after 48 hrs by SRB assay; details: OVCAR-8, 48 h
[28] = system: A498; assay: Cytotoxicity against human A498 cells assessed as growth inhibition after 48 hrs by SRB assay; details: A498, 48 h
[29] = system: ACHN; assay: Cytotoxicity against human ACHN cells assessed as growth inhibition after 48 hrs by SRB assay
[30] = read-out: LC50 (the source's name)
[31] = read-out: pLC50 (the source's name) (converted)

## COc1ccc2c(c1)CCc1n[nH]c(-c3cc(OC)c(OC)c(OC)c3)c1-2
[1]
  growth at 0.01 µM: 14%
[2]
  growth at 0.01 µM: -12%
[3]
  growth at 0.01 µM: 46%
[4]
  growth at 0.01 µM: 30%
[5]
  growth at 0.01 µM: 20%
[6]
  growth at 0.1 µM: 35%
[7]
  growth at 0.1 µM: 30%
[8]
  growth at 0.1 µM: -21%
[9]
  growth at 0.1 µM: 1%
[10]
  growth at 1 µM: 62%
[11]
  growth at 10 µM: 35%
[12]
  growth at 10 µM: 14%
[13]
  growth at 10 µM: 38%
[14]
  growth at 10 µM: 34%
[15]
  growth at 10 µM: 35%
[16]
  growth at 10 µM: -17%
[17]
  growth at 100 µM: 6%
[18]
  growth at 100 µM: -97%
[19]
  growth at 100 µM: -33%
[20]
  growth at 100 µM: -43%
[21]
  growth at 100 µM: -38%
[22]; read-out: GI50
  GI50: < 0.01 µM
[22]; [30]
  CC50: > 100 µM
[22]; read-out: TGI
  TGI: 22.9 µM
[22]; read-out: pGI50 (converted)
  GI50: < 0.01 µM
[22]; [31]
  CC50: > 100 µM
[22]; read-out: pTGI (converted)
  TGI: 22.9 µM
[23]; read-out: GI50
  GI50: < 0.01 µM
[23]; [30]
  CC50: > 100 µM
[23]; read-out: TGI
  TGI: 19.5 µM
[23]; read-out: pGI50 (converted)
  GI50: < 0.01 µM
[23]; [31]
  CC50: > 100 µM
[23]; read-out: pTGI (converted)
  TGI: 19.5 µM
[24]; read-out: GI50
  GI50: < 0.01 µM
[24]; [30]
  CC50: > 100 µM
[24]; read-out: TGI
  TGI: 39.5 µM
[24]; read-out: pGI50 (converted)
  GI50: < 0.01 µM
[24]; [31]
  CC50: > 100 µM
[24]; read-out: pTGI (converted)
  TGI: 39.8 µM
[25]; read-out: GI50
  GI50: < 0.01 µM
[25]; read-out: LC50
  LC50: 98.7 µM
[25]; read-out: TGI
  TGI: 26.8 µM
[25]; read-out: pGI50 (converted)
  GI50: < 0.01 µM
[25]; read-out: pLC50 (converted)
  LC50: 97.7 µM
[25]; read-out: pTGI (converted)
  TGI: 26.9 µM
[26]; read-out: GI50
  GI50: 1.62 µM
[26]; read-out: LC50
  LC50 (concentration killing 50% of cells): 68.8 µM
[26]; read-out: TGI
  TGI: 21.7 µM
[26]; read-out: pGI50 (converted)
  GI50: 1.62 µM
[26]; read-out: pLC50 (converted)
  LC50 (concentration killing 50% of cells): 69.2 µM
[26]; read-out: pTGI (converted)
  TGI: 21.9 µM
[27]; read-out: GI50
  GI50: < 0.01 µM
[27]; read-out: LC50
  LC50 (concentration killing 50% of cells): > 100 µM
[27]; read-out: TGI
  TGI: 15.4 µM
[27]; read-out: pGI50 (converted)
  GI50: < 0.01 µM
[27]; read-out: pLC50 (converted)
  LC50 (concentration killing 50% of cells): > 100 µM
[27]; read-out: pTGI (converted)
  TGI: 15.5 µM
[28]; read-out: GI50
  GI50: < 0.01 µM
[28]; [30]
  CC50: 55.9 µM
[28]; read-out: TGI
  TGI: < 0.01 µM
[28]; read-out: pGI50 (converted)
  GI50: < 0.01 µM
[28]; [31]
  CC50: 56.2 µM
[28]; read-out: pTGI
  TGI: < 0.01 µM
[29]; read-out: GI50
  GI50: < 0.01 µM
[29]; read-out: LC50
  LC50: > 100 µM
[29]; read-out: TGI
  TGI: 21.7 µM
[29]; read-out: pGI50 (converted)
  GI50: < 0.01 µM
[29]; read-out: pLC50 (converted)
  LC50: > 100 µM
[29]; read-out: pTGI (converted)
  TGI: 21.9 µM
